Structures are written as SMILES.

The values below come from paper PMC11607896 (Biotechnology for Biofuels and Bioproducts, 2024).

Holding throughout (format): biochemical
The target of assay [1] is T1, PcCel7D (Phanerodontia chrysosporium, UniProt Q7LIJ0).
T1 sequence (Q7LIJ0 19-510): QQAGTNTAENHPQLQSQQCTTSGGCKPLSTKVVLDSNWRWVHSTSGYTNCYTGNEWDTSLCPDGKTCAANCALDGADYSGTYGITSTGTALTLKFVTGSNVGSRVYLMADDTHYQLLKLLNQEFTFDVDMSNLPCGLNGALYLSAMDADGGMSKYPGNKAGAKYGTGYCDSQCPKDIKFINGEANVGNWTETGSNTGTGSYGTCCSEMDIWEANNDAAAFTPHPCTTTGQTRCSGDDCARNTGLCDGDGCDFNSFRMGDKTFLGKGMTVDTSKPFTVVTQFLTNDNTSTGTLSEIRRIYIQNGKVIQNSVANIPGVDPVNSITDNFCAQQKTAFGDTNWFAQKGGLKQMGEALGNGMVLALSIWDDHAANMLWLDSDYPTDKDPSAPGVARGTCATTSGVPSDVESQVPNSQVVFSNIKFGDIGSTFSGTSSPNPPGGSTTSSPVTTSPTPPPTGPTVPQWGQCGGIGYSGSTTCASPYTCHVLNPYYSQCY
The assay is described as follows: inhibition of pNPC hydrolysis. Conditions: 1 mM pNPC, 1.45 µM enzyme, pH 5.0, 50 °C, 20 min; product inhibition.

The target in assay [2] is T2, PcCel7C (Phanerodontia chrysosporium, UniProt P13860).
T2 sequence (P13860 19-516): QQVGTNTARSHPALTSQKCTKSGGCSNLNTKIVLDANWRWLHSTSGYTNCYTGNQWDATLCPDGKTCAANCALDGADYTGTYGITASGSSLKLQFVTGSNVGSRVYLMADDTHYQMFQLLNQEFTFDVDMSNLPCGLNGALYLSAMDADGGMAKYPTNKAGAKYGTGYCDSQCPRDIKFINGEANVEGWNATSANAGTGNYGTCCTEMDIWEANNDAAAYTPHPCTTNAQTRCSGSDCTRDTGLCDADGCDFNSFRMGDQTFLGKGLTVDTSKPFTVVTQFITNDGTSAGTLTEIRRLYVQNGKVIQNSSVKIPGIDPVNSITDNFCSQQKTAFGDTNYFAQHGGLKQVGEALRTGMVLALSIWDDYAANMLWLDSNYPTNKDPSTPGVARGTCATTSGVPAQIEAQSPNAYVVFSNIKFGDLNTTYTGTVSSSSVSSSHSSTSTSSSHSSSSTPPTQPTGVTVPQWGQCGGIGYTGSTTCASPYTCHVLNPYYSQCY
The assay is described as follows: inhibition of pNPC hydrolysis. Conditions: 1 mM pNPC, 1.45 µM enzyme, pH 5.0, 50 °C, 20 min; product inhibition.

Assay [3] has as its target T3, TrCel7A (Trichoderma reesei, UniProt P62694).
T3 sequence (P62694 18-513): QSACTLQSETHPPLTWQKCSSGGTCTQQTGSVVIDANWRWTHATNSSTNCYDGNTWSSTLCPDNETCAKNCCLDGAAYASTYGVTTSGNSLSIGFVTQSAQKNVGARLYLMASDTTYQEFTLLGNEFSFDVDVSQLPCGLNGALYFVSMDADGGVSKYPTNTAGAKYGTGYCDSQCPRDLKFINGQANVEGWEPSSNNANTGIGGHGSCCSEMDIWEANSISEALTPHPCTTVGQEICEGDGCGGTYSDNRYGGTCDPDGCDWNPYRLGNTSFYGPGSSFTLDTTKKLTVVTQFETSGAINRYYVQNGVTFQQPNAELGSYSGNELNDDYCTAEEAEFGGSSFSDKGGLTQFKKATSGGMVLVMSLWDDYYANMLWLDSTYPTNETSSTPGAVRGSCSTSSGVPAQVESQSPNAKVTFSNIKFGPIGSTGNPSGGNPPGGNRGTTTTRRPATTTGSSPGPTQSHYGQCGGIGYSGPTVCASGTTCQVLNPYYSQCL
Nature of the assay: inhibition of pNPC hydrolysis. The settings on record: 1 mM pNPC, 1.45 µM enzyme, pH 5.0, 50 °C, 20 min; product inhibition.

Assay [4] addresses T1, PcCel7D. The assay is described as follows: PASC hydrolysis, reducing sugar. The settings on record: PASC 10 g/L, 0.2 µM enzyme, pH 5.0, 50 °C, 60 min; may be deactivation.
Assay [5] has as its target T2, PcCel7C. Nature of the assay: PASC hydrolysis, reducing sugar. Conditions: PASC 10 g/L, 0.2 µM enzyme, pH 5.0, 50 °C, 60 min; may be deactivation.
For assay [6], the target named is T1, PcCel7D. Nature of the assay: PASC hydrolysis, reducing sugar. The settings on record: PASC 10 g/L, 0.2 µM enzyme, pH 5.0, 50 °C, 60 min; may be deactivation. This is another data set of the same source.
For assay [7], the target named is T2, PcCel7C. The assay is described as follows: PASC hydrolysis, reducing sugar. The settings on record: PASC 10 g/L, 0.2 µM enzyme, pH 5.0, 50 °C, 60 min; may be deactivation. The source holds these as a separate data set.
The target of assay [8] is T3, TrCel7A. The assay is described as follows: inhibition of pNPC hydrolysis. Conditions: 1 mM pNPC, 1.45 µM enzyme, pH 5.0, 50 °C, 20 min.
In assay [9] the target is T1, PcCel7D. The assay is described as follows: inhibition of pNPC hydrolysis. The settings on record: 1 mM pNPC, 1.45 µM enzyme, pH 5.0, 50 °C, 20 min.
The target in assay [10] is T2, PcCel7C. Nature of the assay: inhibition of pNPC hydrolysis. The settings on record: 1 mM pNPC, 1.45 µM enzyme, pH 5.0, 50 °C, 20 min.

On to `OC[C@H]1O[C@@H](O[C@H]2[C@H](O)[C@@H](O)C(O)O[C@@H]2CO)[C@H](O)[C@@H](O)[C@@H]1O` (stereo partly shown) [cellobiose], for which the “% reduction in activity at 1 mM” value in [1], in assay [2] and in assay [3] was ~ 50% each time.
Turning to `O=C(O)c1ccc(O)cc1` [compound 3, 4-hydroxybenzoic acid], the “% decrease in activity at 30 mM” value in assay [4] is on record as “the activity of PcCBHs exhibited susceptibility to the same LRCs, following a comparable pattern”; in assay [5], “the activity of PcCBHs exhibited susceptibility to the same LRCs, following a comparable pattern”.
Consider `O=C(O)c1c(O)cccc1O` [compound 12, 2,6-dihydroxybenzoic acid], for which the results for the “% reduction in activity at 30 mM” value in assay [6] and in assay [7] were 67% and 87%, respectively.
In the case of `OC[C@H]1OC(O)[C@H](O)[C@@H](O)[C@@H]1O` (stereo partly shown) [glucose], the “% loss of activity at 1.5 M” value in assay [8] is on record as 30%; in [9] it was 67%; in [10] it was 67%.
